Test results taken from the PolyMetriX glass transition set.
± gives the standard deviation of the reports.

Row | Structure (SMILES) | glass transition temperature [°C]
1 | *CCCCCCCC(=O)OCC1(C)COC(*)OC1 (repeat unit) | -26.00
2 | *O[Si](*)(C)CC (repeat unit) | -133.00
3 | *CC(CC)S* (repeat unit) | -47.00
4 | *c1cc(C(C)C)c(Oc2ccc(S(=O)(=O)c3ccc(Oc4cc(C)c(C5(*)OC(=O)c6ccccc65)cc4C(C)C)cc3)cc2)cc1C (repeat unit) | 230.00
5 | *O[Si](*)(C)CCCCOc1ccc(C(=O)Oc2ccc(C#N)cc2)cc1 (repeat unit) | 16.00
6 | *Nc1cc(NC(=O)c2cccc(C(*)=O)c2)cc(C(=O)OCCOc2ccc(/C=C/C(=O)c3ccccc3)cc2)c1 (repeat unit) | 216.00
7 | *O[Si](*)(C)CCCCCCCCCCCOc1ccc(C(=O)OC/C=C(\C)CCC=C(C)C)cc1 (repeat unit) | 25.00
8 | *c1cc(OCCCCCCCCCCCCCCCC)cc(N2C(=O)c3ccc(Oc4ccc5c(c4)C(=O)N(*)C5=O)cc3C2=O)c1 (repeat unit) | 159.00
9 | *CCCCCCCCCCCCOc1ccc(C(C)(C)c2ccc(OCOc3ccc(C(C)(C)c4ccc(O*)cc4)cc3)cc2)cc1 (repeat unit) | 37.00
10 | *CCCCCCOC(=O)NC1CCC(CC2CCC(NC(=O)OCCCCCCOc3ccc(CCc4ccc(O*)cc4)cc3)CC2)CC1 (repeat unit) | 40.30
11 | *Oc1ccc(C(C)(c2ccccc2)c2ccc(OC(=O)OC3C(C)(C)C(OC(*)=O)C3(C)C)cc2)cc1 (repeat unit) | 149.00
12 | *CCC(C)(C)CC(C)COC(=O)c1ccc(C(=O)O*)cc1 (repeat unit) | -9.00
13 | *Oc1ccc(NC(=O)c2ccc(NC(=O)c3ccc([Si](C)(C)c4ccc(C(=O)Nc5ccc(C(=O)Nc6ccc(*)cc6)cc5)cc4)cc3)cc2)cc1 (repeat unit) | 304.00
14 | */C=C/c1ccc(-c2nnc(-c3ccc(/C=C/c4ccc5c(c4)c4cc(*)ccc4n5CCCCCCCC)cc3)n2-c2ccccc2)cc1 (repeat unit) | 147.00
15 | *C(=O)c1ccc2c(c1)C(=O)N(c1cccc(Cc3ccc(C(=O)c4cccc(N5C(=O)c6ccc(*)cc6C5=O)c4)cc3)c1)C2=O (repeat unit) | 265.50
16 | */C=C/C1CC(*)C(C#N)(C[Si](C)(C)C)C1 (repeat unit) | 128.00
17 | *Oc1ccc(C(=O)Nc2cc(C(c3ccc(C)c(NC(=O)c4ccc(OC(=O)c5ccc(C(*)=O)cc5)cc4)c3)(C(F)(F)F)C(F)(F)F)ccc2C)cc1 (repeat unit) | 213.00
18 | *CCCCOC(=O)CCCCCCCCCCCCCCCCCCCCCCCCCCCCCCCCCCC(=O)O* (repeat unit) | -55.00
19 | *c1ccc2c(c1)C(=O)N(c1ccc(Oc3cccc(Oc4ccc(N5C(=O)c6ccc(C(*)(C(F)(F)F)C(F)(F)F)cc6C5=O)cc4)c3)cc1)C2=O (repeat unit) | 241.50 ± 18
20 | *c1cccc(N2C(=O)c3ccc(Oc4ccccc4Oc4ccc5c(c4)C(=O)N(*)C5=O)cc3C2=O)c1 (repeat unit) | 224.00

Row | Structure (SMILES) | glass transition temperature [°C]
21 | *Oc1ccc(C(C)(c2ccccc2)c2ccc(OC(*)=S)cc2)cc1 (repeat unit) | 181.00
22 | *C(F)(F)C(=O)NCCCCCCNS(*)(=O)=O (repeat unit) | 52.00
23 | *Oc1ccc(C(C)(C)c2ccc(Oc3ccc(C(=O)c4c(C)ccc5c(C(=O)c6ccc(*)cc6)c(C)ccc45)cc3)cc2)cc1 (repeat unit) | 222.00
24 | *CC(*)c1cccs1 (repeat unit) | 71.00
25 | *O[Si](C)(C)C#Cc1ccc(C#C[Si](*)(C)C)cc1 (repeat unit) | 126.00
26 | *CC(*)C(=O)OCCCCn1c2ccccc2c2ccccc21 (repeat unit) | 68.00
27 | *c1cccc(C(=O)Nc2ccc(Oc3ccc(-c4ccc(Oc5ccc(NC(=O)c6cccc(N7C(=O)c8ccc(-c9ccc%10c(c9)C(=O)N(*)C%10=O)cc8C7=O)c6)cc5)cc4)cc3)cc2)c1 (repeat unit) | 270.00
28 | *c1ccc(S(=O)(=O)c2ccc(-n3nc(-c4ccccc4)c4cc(Oc5ccc(C(C)(C)c6ccc(Oc7ccc8c(-c9ccccc9)nn(*)c(=O)c8c7)cc6)cc5)ccc4c3=O)cc2)cc1 (repeat unit) | 210.50
29 | *CC(*)c1ccc(CCCCCCCCCC)cc1 (repeat unit) | -65.00
30 | */C=C(/*)CCCOc1ccc(OC(=O)c2ccc(OCCCC)cc2)cc1 (repeat unit) | 36.00
31 | *CCOC(=O)CCCCCCCCCCC(=O)OCCOC(=O)c1ccc(C(=O)O*)cc1 (repeat unit) | -8.00
32 | *CCOCCOCCOC(=O)CCSCCC(=O)O* (repeat unit) | -35.00
33 | *c1ccc(Oc2ccc(N3C(=O)c4ccc(Oc5ccc6c(c5)C(=O)N(*)C6=O)cc4C3=O)cc2Br)c(Br)c1 (repeat unit) | 251.00
34 | *CCCCCCCCCCCCCCCCOC(=O)CCCCCCC(=O)O* (repeat unit) | -26.00
35 | *Oc1ccc(C(C)(C)c2ccc(C(C)(C)c3ccc(Oc4ccc(C(=O)Nc5ccc(Cc6ccc(NC(=O)c7ccc(*)cc7)cc6)cc5)cc4)cc3)cc2)cc1 (repeat unit) | 162.00
36 | *c1cc(-c2ccc(C(=C3C=C(C(C)(C)C)C(=O)C(C(C)(C)C)=C3)c3cc(C(C)(C)C)c(O)c(C(C)(C)C)c3)cc2)c(*)s1 (repeat unit) | -12.60
37 | *C(=O)Nc1cccc(N2C(=O)CC(N3C(=O)c4ccc(*)cc4C3=O)C2=O)c1 (repeat unit) | 130.00
38 | *Oc1ccc(C(=O)OCCN(CCOC(=O)c2ccc(OC3(F)C(*)(F)C(F)(F)C3(F)F)cc2)c2ccc(/C=C/C3=CC(=C(C#N)C#N)CC(C)(C)C3)cc2)cc1 (repeat unit) | 143.00
39 | *c1ccc(-c2cc(-c3ccc(-c4ccccc4)cc3)cc(-c3ccc(N4C(=O)c5ccc(NC(=O)Nc6cccc(NC(=O)Nc7ccc8c(c7)C(=O)N(*)C8=O)n6)cc5C4=O)cc3)n2)cc1 (repeat unit) | 248.00
40 | *c1ccc(CC(=O)Nc2cccc(NC(=O)Cc3ccc(-c4sc(*)c(-c5ccccc5)c4-c4ccccc4)cc3)c2)cc1 (repeat unit) | 228.00

Row | Structure (SMILES) | glass transition temperature [°C]
41 | *c1ccc(-c2c(-c3ccc(-c4ccccc4)cc3)cc(-c3ccc(OCCCCCCCCCCOc4ccc(-c5cc(-c6ccc(-c7ccccc7)cc6)c(-c6ccc(-n7c(=O)c8cc9c(=O)n(*)c(=O)c9cc8c7=O)cc6)c(-c6ccc(-c7ccccc7)cc6)c5)cc4)cc3)cc2-c2ccc(-c3ccccc3)cc2)cc1 (repeat unit) | 121.00
42 | *c1ccc2c(c1)C(=O)N(c1cc(C(c3ccc(OCCN(CC)c4ccc(/N=N/c5ccc([N+](=O)[O-])cc5)cc4)c(N4C(=O)c5ccc(C(*)(C(F)(F)F)C(F)(F)F)cc5C4=O)c3)(C(F)(F)F)C(F)(F)F)ccc1OCCN(CC)c1ccc(/N=N/c3ccc([N+](=O)[O-])cc3)cc1)C2=O (repeat unit) | 199.00
43 | *CC(*)(F)C(=O)OCC(F)(F)C(F)(F)C(F)(F)C(F)F (repeat unit) | 60.00
44 | *c1c(C)cc(C)c(N2C(=O)c3cccc(Oc4c(C)cc(-c5cc(C)c(Oc6cccc7c6C(=O)N(*)C7=O)c(C)c5)cc4C)c3C2=O)c1C (repeat unit) | 325.00
45 | *C(=O)Nc1ccc(-c2sc(-c3ccc(NC(=O)c4ccc5c(c4)C(=O)N(c4ccc(Oc6ccc7ccc(Oc8ccc(N9C(=O)c%10ccc(*)cc%10C9=O)cc8)cc7c6)cc4)C5=O)cc3)c(-c3ccccc3)c2-c2ccccc2)cc1 (repeat unit) | 311.00
46 | *CC(*)OC(=O)C1(F)C(F)(F)C(F)(F)C(F)(F)C(F)(F)C1(F)F (repeat unit) | 54.00
47 | *CC(*)C(=O)c1ccc(C)cc1 (repeat unit) | 59.50
48 | *c1ccc(Oc2ccc(C(=O)c3cccc(C(=O)c4ccc(Oc5ccc(-c6nc7ccccc7n6-c6ccc(-n7c(*)nc8ccccc87)cc6)cc5)cc4)c3)cc2)cc1 (repeat unit) | 219.00
49 | *c1ccc(Oc2ccc(-c3ccc(Oc4ccc(N5C(=O)c6ccc(Oc7c(C)cc(Cc8cc(C)c(Oc9ccc%10c(c9)C(=O)N(*)C%10=O)c(C)c8)cc7C)cc6C5=O)cc4)cc3)cc2)cc1 (repeat unit) | 248.00
50 | *OC(=O)c1cccc(C(=O)Oc2ccc3c(c2)Oc2cc(*)ccc2C32OC(=O)c3ccccc32)c1 (repeat unit) | 276.00
51 | *Oc1ccc(CC(NC(=O)CCc2ccc(OC(=O)CCCCCCCCC(*)=O)cc2)C(=O)OCCOCCOCC)cc1 (repeat unit) | 2.00
52 | *C(=O)c1ccc2c(c1)C(=O)N(c1cc(OCCCC)cc(N3C(=O)c4ccc(*)cc4C3=O)c1)C2=O (repeat unit) | 244.00
53 | *c1ccc(Oc2ccc(C(c3ccc(Oc4ccc(-c5ccc(*)s5)cc4C(F)(F)F)cc3)(C(F)(F)F)C(F)(F)F)cc2)c(C(F)(F)F)c1 (repeat unit) | 155.00
54 | *CC(*)(C)C(=O)OCCN(CC)c1ccc(/N=N/c2ccc(S(C)(=O)=O)cc2)cc1 (repeat unit) | 144.00
55 | *c1ccc(Oc2ccc(S(=O)(=O)c3ccc(Oc4ccc(-c5c6c(c(*)c7ccccc57)C(=O)N(c5ccc(Cl)cc5)C6=O)cc4)cc3)cc2)cc1 (repeat unit) | 280.00
56 | *CCCCCCCCCCOC(=O)Nc1ccc(C)c(NC(=O)O*)c1 (repeat unit) | 18.00
57 | *CCN(*)C(=O)CCCCCCCCCCC (repeat unit) | 10.00
58 | */C=C/c1sc(-c2ccc3c(c2)C(CCCCCC)(CCCCCC)c2cc(-c4sc(/C=C/C5=CC(=C(C#N)C#N)C=C(*)O5)c(CCCCCC)c4CCCCCC)ccc2-3)c(CCCCCC)c1CCCCCC (repeat unit) | 115.00
59 | *Oc1ccc(C(c2ccc(Oc3ccc(C(=O)Nc4ccc(NC(=O)c5ccc(*)cc5)cc4)cc3)cc2)(C(F)(F)F)C(F)(F)F)cc1 (repeat unit) | 218.00
60 | *CC(O)COc1ccc(C(C)(C)c2ccc(OCC(O)COc3cccc(NC(=O)Cc4cccc(CC(=O)Nc5cccc(O*)c5)c4)c3)cc2)cc1 (repeat unit) | 119.00
